Assay results taken from patent US5547956A, “Pharmaceutical composition and the method for treating drug addicts' withdrawal syndromes and detoxifying addicts by the same” (priority 1991, dated 1996).
Where a name gives a salt, the structure may show the parent alone. Read-outs that look alike come from different tables or passages of the source.

Legend:
Morphine-dependent Mice = type: in vivo, mouse; conditions: for Jumping Mice/Survived Mice, Day 1 after stopping drug / Jumping Mice/Survived Mice, Day 4 after stopping administration / Jumping Mice/Survived Mice, Day 5 of treatment: nalorphine 50 mg/kg
Procedure: In the first 4 days, administration was given once per 6 hours, four times a day. From day 5 through day 7, administration was given once every 8 hours, three times a day. On day 5 and day 8 of treatment, respectively, subcutaneous injections of nalorphine (50 mg/kg) were made to […].

[1] = system: mice dependent on cocaine
Procedure: In the same way as described above, subcutaneous injection of cocaine (10 mg/kg) were given to the mice twice a day, and the injection was continued for 7 days.

[2] = oral methadone vs injected morphine; cited from earlier work
mice [3] = system: mice
Procedure: Male mice weighing 18~22 g were used for the test and divided into 3 groups (10 for every group). […] The second group of mice was given a subcutaneous injection of lappaconitine hydrobromide (8 mg/kg) for 20 days. The third group was a control group and was given physiological saline. 6 hours after being given the last dose, all the mice were given an intraperitoneal injection of 10 mg/kg allyl dromaran, and then were placed in a cone cylinder cage (diameter=30 cm, height=35 cm). The number of jumps for each mouse in 60 minutes was recorded.

mice [4] = system: mice; remark: listed apart in the source
Procedure: In another case, male mice weighing 18-22 g were divided into four groups (10 for every group). Two groups of mice were injected subcutaneously with lappaconitine hydrobromide 7 times within 2 days. The initial dosage was 3.5 mg/kg. Then, additional doses of 0.5 mg/kg and 1.0 mg/kg were given for every injection in each group, respectively. […] The initial dosage was 2.5 mg/kg and an escalating dose schedule of 5, 10, 20, 30, 40, 50 mg/kg was applied. The fourth group of mice was used as control group and was given physiological saline. Two hours after the last injection, all the mice of the above four groups were injected with 50 mg/kg nalorphine through the intraperitoneal cavity. The number of jumps within 10 minutes in each group of mice were recorded.

Morphine-dependent rats = type: in vivo, Wister rat
Procedure: Wister male rats weighing 200-250 g were divided into 3 groups (10 for each group).
II Physiological saline 2 ml/kg. sc
III Lappaconitine hydrobromide 8 mg/kg. sc

Macaca mulatta = test: Monkey addiction test (lappaconitine); type: in vivo
Procedure: Three of 6 Macaca mulatta weighing 2.75~4.75 kg were subcutaneously injected with lappaconitine twice a day. The initial dosage is 0.1 mg/kg, and the dose was successively escalated to the maximum tolerance dosage, 2 mg/kg within 50 days. Then, the tolerance dosage was maintained to the 53rd day, 67th day and 92nd day, respectively. […] On day 63 and day 92, the injections of lappaconitine to the monkeys was stopped. […] On day 29, 53, 59, 67 and 90, injections to the monkeys were discontinued and after 18 hours, subcutaneous injection of nalorphine (4 or 8 mg/kg) were given.

[5] = Acute Toxicity Test, mice; type: in vivo, mouse; conditions: for LD50: mouse, in vivo, read-out: LD50 (95 % confidence limit)
[6] = Acute Toxicity Test, rats; type: in vivo, rat
[7] = Acute Toxicity Test, monkeys; type: in vivo, Macca Mulatta
[8] = type: in vivo, Wister rat; conditions: 5 or 10 mg/kg ip a day, 30 days
Procedure: Ten Wister rats weighing 200~250 g were divided into 2 groups (5 for each group). Each group was given intraperitoneal injection of 5 mg/kg or 10 mg/kg of lappaconitine a day, respectively. The injection was continued for 30 days. 5 wister rats of a control group were given subcutaneous injections of saline (2 ml/kg). […].

[9] = type: in vivo, Wister rat; conditions: 8 to 14 mg/kg ip escalated, until day 28
Procedure: Another ten Wister rats were medicated with successively escalated doses, in other words, the rats were first injected with lappaconitine (8 mg/kg) intraperitoneally. After one week with 10 mg/kg; after 2 weeks with 12 mg/kg; after 16 days with 14 mg/kg; and the last dose was maintained until day 28.

[10] = Subacute toxicity Test, monkeys; type: in vivo, Macca Mulatta
Procedure: Three Macca Mulatta weighing 2.75~4.75 kg were injected with lappaconitine subcutaneously twice a day. Initiated with 0.1 mg/kg, the dosage was increased successively to the highest tolerated dosage, 2 mg/kg within 50 days, and the last dosage was maintained to day 53, day 67 and day 92, respectively. The accumulated injective dosage was 196, 400 and 635 mg, respectively.

[11] = system: morphine-dependent monkeys
[12] = nalorphine 50 mg/kg, 2 days: lappaconitine initial 3.5 mg/kg, total 45.5 mg/kg, 5 mice tested
[13] = 0.1 to 2 mg/kg sc twice a day, to day 53, 67 and 92
[14] = 0.45 mg/g sc (so in the source)

CCN1CC2(O)CCC(OC)C34C1C(CC23)C1(O)CC(OC)C2CC4C1(O)C2OC (stereo not shown) [Lappaconine hydrobromide, lappaconine hydrobromide]
Jumping Mice/Survived Mice, Day 1 after stopping drug (Morphine-dependent Mice; 5 mg/g (so in the source) sc): 0/10
Jumping Mice/Survived Mice, Day 4 after stopping administration (Morphine-dependent Mice; 5 mg/g (so in the source) sc): 0/10
Jumping Mice/Survived Mice, Day 5 of treatment (Morphine-dependent Mice; 5 mg/g (so in the source) sc): 0/10

COC(=O)[C@H]1[C@@H](OC(=O)c2ccccc2)C[C@@H]2CC[C@H]1N2C [cocaine, reference compound]
abnormal signs during injection of cocaine ([1]; 10 mg/kg sc twice a day, 7 days): anorexia, pilo-erection, and frequent walking with holding tail, and the like

CCC(=O)C(CC(C)N(C)C)(c1ccccc1)c1ccccc1 (stereo not shown) [methadone]
dependence potential of 100 mg of oral methadone [2]: equivalent to that of 10 mg of injected morphine

CCN1CC2(OC(=O)c3ccccc3NC(C)=O)CCC(OC)C34C1C(CC23)C1(O)CC(OC)C2CC4C1(O)C2OC (stereo not shown) [Lappaconitine]
jumping times of each mouse (mice [3]; mouse, in vivo): 0.2
number of jumping mice (mice [3]; mouse, in vivo): 1
mice died of accumulated toxicity during the administration (mice [4]; initial 3.5 mg/kg, total 45.5 mg/kg in 2 days, of 10 mice): five
jumping times of each mouse (mice [4]; mouse, in vivo): 0
number of jumping mice (mice [4]; mouse, in vivo): 0
jumping times of each mouse (mice [4]; [12]): 0
number of jumping mice (mice [4]; [12]): 0
behaviour of morphine-withdrawn rats after injection (Morphine-dependent rats; rat, in vivo): still looked suppressive
weight change of morphine-withdrawn rats after injection (Morphine-dependent rats; rat, in vivo): no weight increase was observed
substitution for morphine (Morphine-dependent rats; rat, in vivo, sc, 8 mg/kg): did not act as a substitution for morphine
withdrawal symptoms after nalorphine (Macaca mulatta; 18 hours after discontinuing on day 29, 53, 59, 67 and 90, nalorphine 4 or 8 mg/kg sc): No withdrawal symptoms were observed
behavior and appetite after stopping injections (Macaca mulatta; 24 hours following stop on day 63 and day 92): no different behavior and appetite from that before stopping injection
dependence after long term use (Macaca mulatta; monkeys): does not cause dependence after long term use
toxicity reactions at lethal dosage ([5]; lethal dosage): paroxysmal convulsion, respiration suppression until suffocation, and death
LD50 ([5]; intravenous injection): 8.4 mg/kg
LD50 ([5]; po, intra gasteria): 32.4 mg/kg
LD50 ([5]; sc, subcutaneous injection): 11.7 mg/kg
toxicity reactions ([5]; toxicity dosages): paroxysmal restlessness, and foreleg tic
toxicity reactions ([6]; intraperitoneal, toxicity dosage): looked suppressive and immobile lying on stomach in cage, obvious suppression of respiration and showed convulsions before death
LD50 ([6]; rat, in vivo, ip, intraperitoneal injection, read-out: LD50 (95 % confidence limit)): 16.5 mg/kg
toxic reaction and electrocardiography ([7]; 2 mg/kg sc, two monkeys): No toxic reaction and no effect on electrocardiography were observed
electrocardiography examination ([7]; 3 mg/kg sc): T wave had elevation, T wave and P wave fused, and R wave became smaller and notching
toxic reactions ([7]; 3 mg/kg sc, 30 minutes after injection): restlessness, slobbering, increased swallowing, drooping eyelids, and rigidity of leg muscles
convulsion and death of one monkey ([7]; 3 mg/kg sc, from 45 minutes): The convulsion still continued until death after 1 hr
duration of toxic reaction in the other monkey ([7]; 3 mg/kg sc, no convulsion): 2 h
electrocardiography examination next day ([7]; 3 mg/kg sc, surviving monkey): normal
electrocardiography examination [8]: No obvious change
hepatic and renal function and histological and pathological examination of viscera [8]: No change was observed
weight increase compared to control [8]: inhibited weight increase at different levels
weight increase compared to control [9]: a little suppressed
Histological and pathological examinations [10, 13]: stimulating reaction, except a little edema and hydrodenaturation in the liver and increasing cerebral colloid cells
electrocardiographic examination [10, 13]: No obvious change
toxic reaction during administration [10, 13]: No toxic reaction
MTD ([10]; rhesus monkey, in vivo, monkey, sc twice a day, escalated from 0.1 mg/kg within 50 days, read-out: maximum tolerance dosage / highest tolerated dosage): 2 mg/kg
recovery of cocaine-treated mice ([1]; mouse, in vivo): recovered to normal
effect on withdrawal symptoms of morphine-dependent monkeys ([11]; in vivo): could not relieve or weaken the above withdrawal symptoms
substitute for morphine ([11]; in vivo, sc, 2 mg/kg): does not act as a substitute for morphine

CCN1CC2(OC(=O)c3ccccc3N)CCC(OC)C34C1C(CC23)C1(O)CC(OC)C2CC4C1(O)C2OC (stereo not shown) [N-deacetyllappaconitine hydrobromide, N-deacetyl-lappaconitine hydrobromide]
Jumping Mice/Survived Mice, Day 1 after stopping drug (Morphine-dependent Mice; 5 mg/g (so in the source) sc): 0/10
Jumping Mice/Survived Mice, Day 4 after stopping administration (Morphine-dependent Mice; 5 mg/g (so in the source) sc): 0/10
Jumping Mice/Survived Mice, Day 5 of treatment (Morphine-dependent Mice; 5 mg/g (so in the source) sc): 0/10

CN1CC[C@]23c4c5ccc(O)c4O[C@H]2[C@@H](O)C=C[C@H]3[C@H]1C5.Cl [Morphine, morphine hydrochloride, reference compound]
jumping times of each mouse (mice [3]; allyl-dromaran 10 mg/kg ip, 20 days: morphine 80 mg/kg (total 1600), lappaconitine 8.0 mg/kg (total 160)): 34
jumping times of each mouse (mice [4]; nalorphine 50 mg/kg, 2 days: morphine initial 2.5 mg/kg (total 157.5), lappaconitine initial 3.5 mg/kg (total 35)): 9
average weight loss per rat (Morphine-dependent rats; 24 hours after discontinuing morphine (25 mg/kg sc twice a day, 12 weeks)): 25 g
behaviour of morphine-withdrawn rats after injection (Morphine-dependent rats; morphine hydrochloride 25 mg/kg sc or lappaconitine hydrobromide 8 mg/kg sc): turned to being excited from being suppressive, moved increasingly, frequently took food and water
weight change of morphine-withdrawn rats after injection (Morphine-dependent rats; within 8 hours, morphine hydrochloride 25 mg/kg sc or lappaconitine hydrobromide 8 mg/kg sc): the weight increased to the level shown very quickly before stopping injection of morphine
Withdrawal Syndrome, Nalorphine 0.5 mg/kg sc ([11]; Table 5, per monkey (No. 7, 8) and day): +
dependence in monkeys ([11]; sc twice a day until the 30th day): showed dependence on morphine
effect on withdrawal symptoms of morphine-dependent monkeys ([11]; sc, lappaconitine 2 mg/kg, 18 hours after stopping morphine): obviously reduced or disappeared

C=CCN1CC[C@]23c4c5ccc(O)c4O[C@H]2[C@@H](O)C=C[C@H]3[C@H]1C5 [nalorphine]
effect of nalorphine on withdrawal symptoms ([11]; in vivo, sc): the above symptoms would be more obvious

CCN1CC2(OC(=O)c3ccccc3NC(C)=O)CCC(OC)C34C1C(CC23)C1(O)CC(OC)C2CC4C1(O)C2OC (stereo not shown) [Lappaconitine hydrobromide, lappaconitine hydrobromide]
behaviour after administration (mice [3]; mouse, in vivo): looked quiet and immobile and showed no pilo-erection reaction
jumping reaction after injection of allyl dromaran (mice [3]; mouse, in vivo): no jumping reaction
drug dependence (conclusion of Table 4) (mice [4]; mouse jumping test): does not cause drug dependence
Jumping Mice/Survived Mice, Day 1 after stopping drug (Morphine-dependent Mice; [14]): 0/10
Jumping Mice/Survived Mice, Day 4 after stopping administration (Morphine-dependent Mice; [14]): 0/10
Jumping Mice/Survived Mice, Day 5 of treatment (Morphine-dependent Mice; [14]): 1/10
number of jumps of the one jumping mouse (Morphine-dependent Mice; footnote *^3, 0.45 mg/g (so in the source) sc group, Day 5): five
